Reference: patent EP0980354B1, “VITAMIN D3 ANALOGS WITH BIS C-20 SIDE CHAINS” (priority 1997, dated 1998)

What was measured:
parathyroid hormone = assay: Secondary hyperparathyroidism in the 7/8 nephrectomy rat renal insufficiency model (serum PTH, serum calcium); format: in vivo, Female Sprague Dawley rats; set-up: Final Ca Levels (mg/ml): unit not given here; details: for PTH pg/ml T=1-T=0 / Final Ca Levels (mg/ml): 7 days, 7/8 nephrectomized rats, serum
Excerpt: • Compound of Formula Ia • 1,25(OH)2 vitamin D3 (control) • Vehicle - Miglyol 812
Female Sprague Dawley rats were anesthesized, their right kidney removed and 2-3 branches of the left renal artery were ligated to achieve 7/8 nephrectomy. They were placed on a high phosphorous diet (0.6% Ca and 0.8 phosphorous). Approximately 3-6 weeks after surgery, rats were bled to screen serum PTH levels and rats with PTH levels between 100-500 pg/ml were selected for the study.
There was a pre-bleed (T=0) and each group was dosed daily for seven days by oral gavage with either the compound of Formula Ia (10, 1 or 0.1 µg/kg/day), vehicle control or […] positive control. Compounds were predissolved in ethanol and diluted with vehicle (Miglyol 812) followed by evaporation of the ethanol.
After the last day of dosing, the animals were bled again (T=1) and sacrificed. Serum PTH assays were done with Nichols Institute Diagnostic Kit #40-2240. Serum calcium assays were done with Sigma Diagnostic Kit #587 with o-cresophthalein. Serum creatinine assays were done with Sigma Diagnostic Kit #1600-320 with ammonium molybdate.

MCF-7 cells = assay: Cell proliferation assay in MCF-7 breast cancer cells (MTT); format: cell-based, human; details: for IC50: MCF-7 cells, 7 days of culture, MTT
Experimental: MCF-7 cells are human mammary carcinoma cells that are positive for estrogen receptors. The potential activity of vitamin D3 analogs against breast cancer was assessed from inhibition of proliferation of MCF-7 cells in culture.
(§1) MCF-7 cells were plated at 5000 cells/well in 96-well plates and incubated at 37°C in 5% CO2/95% air in Dulbecco's Modified Eagle Medium containing 10% fetal bovine serum 700 nM insulin, 2 mM glutamine, 0.1 mM MEM non-essential amino acids and 1 mM sodium pyruvate. Stock solutions of vitamin D3 analogs were prepared at a concentration of 10 mM in absolute ethanol and stored at -20°C under argon. One day after plating, MCF-7 cells were refed with either control medium or medium containing varying concentrations of the vitamin D3 analog.
For each vitamin D3 analog, the IC50 value was determined from a graph relating the optical density at 570 nm to the concentration used. The IC50 value was defined as the concentration of the vitamin D3 analog corresponding to half-maximal reduction in 570 nm absorbance.

ZR-75 cells = assay: Cell proliferation assay in ZR-75 breast cancer cells (MTT); format: cell-based, human; details: for IC50: ZR-75 cells, 10 days of culture, MTT
Experimental: ZR-75 cells are human mammary carcinoma cells that are positive for estrogen receptors. The potential activity of vitamin D3 analogs against breast cancer was assessed from inhibition of proliferation of ZR-75 cells in culture.
as §1, with “ZR-75” for “MCF-7”, “12,500” for “5000”, “24-well” for “96-well”, “RPMI medium” for “Dulbecco's Modified Eagle Medium”, “and” for “700 nM insulin,”, “glutamine.” for “glutamine, 0.1 mM MEM non-essential amino acids and 1 mM sodium pyruvate.”
The IC50 value was defined as the concentration of the vitamin D3 analog corresponding to half-maximal reduction in 570 nm absorbance.

[1] = tested on: postmenopausal osteoporosis; details: 0.25 microgram twice daily, after 3 years, mild to moderate disease, versus elemental calcium 1000 mg/day; cited from earlier work

Compound	PTH pg/ml T=1-T=0 (parathyroid hormone; 0.1 µg/kg/day po) [pg/mL]	IC50 (MCF-7 cells; Homo sapiens, MCF7, 168 h) [nM]	IC50 (ZR-75 cells; Homo sapiens, ZR75, 240 h) [nM]	lower rate of new vertebral fractures [1] [fold]	Final Ca Levels (mg/ml) (parathyroid hormone; 0.1 µg/kg/day po)	Final Ca Levels (mg/ml) (parathyroid hormone; 1 µg/kg/day po)	PTH pg/ml T=1-T=0 (parathyroid hormone; 1 µg/kg/day po) [pg/mL]	Final Ca Levels (mg/ml) (parathyroid hormone; 10 µg/kg/day po)	PTH pg/ml T=1-T=0 (parathyroid hormone; 10 µg/kg/day po) [pg/mL]	suppressing the elevated levels of parathyroid hormone (parathyroid hormone; compared with 1,25(OH)2 vit. D3, summary in words)	elevated calcium levels (parathyroid hormone; summary in words)	IC50 (MCF-7 cells) [nM]	potency relative to 1,25-dihydroxy-cholecalciferol in inhibition of MCF-7 breast cells growth (MCF-7 cells; ratio of IC50 values)	IC50 (ZR-75 cells) [nM]	potency relative to 1,25-dihydroxy-cholecalciferol in inhibition of ZR-75 breast cells growth (ZR-75 cells; ratio of IC50 values)
C=C1/C(=C\C=C2/CCC[C@]3(C)[C@@H]([C@H](C)CCCC(C)(C)O)CC[C@@H]23)C[C@@H](O)C[C@@H]1O [1,25(OH)2 vit. D3, 1,25-dihydroxyvitamin D3, reference compound]	-66	40	13	3	–	–	–	–	–	–	–	–	–	–	–
(1α,3β,5Z,7E)-21-(3-hydroxy-3-methylbutyl)-9,10-Secocholesta-5,7,10, (19)-triene-1,3,25-triol [Formula Ia]	112	–	–	–	10.20	10.35	-124	11.97	-132	more effective than 1,25(OH)2 vit. D3	without causing elevated calcium levels	0.8	approximately 50 times	0.3	more than 40 times
